Measurements as given in patent publication US9655913B2, “Anti-esophageal cancer compound and method of use thereof” (Hong Kong Baptist University, priority 2015, dated 2017).
Entries after “also recorded” stand apart in the source; their conditions may differ.

Legend:
KYSE-70 = experiment: MTT cytotoxicity assay, KYSE-70; format: cell-based, Human; conditions: KYSE-70, highest concentration of 50 μg/mL, 48 hours
Procedure: (§1) In this invention, compound 1 was dissolved in dimethyl sulfoxide (DMSO) to make stock solutions and further diluted in culture medium for this experiment. Human esophagus carcinoma cancer cell lines (KYSE-70, KYSE-150, KYSE-450 and KYSE-520) were cultured in RPMI 1640 or DMEM medium, containing 10% fetal bovine serum and 1% antibiotics (Penicillin and strep). The cell lines were cultured at 37° C. in a humidified environment containing 5% CO2. A standard colorimetric MTT assay was used to determine the cell viability. Cells were seeded in a 96-well plate (3×10^3 cells/well) and allowed to attach to the plate overnight. After the recovery, cells were treated with various concentrations of compound 1 or the crude extract (1.56, 3.125, 6.25, 12.5, 25, 50 μg/mL) for 48 hours. Then, 20 μL of MTT (5 mg/mL stock in PBS) per well was added into the medium (200 μL) and incubated for 4 hours at 37° C. Finally, the culture medium was removed and 200 μL of DMSO were added. Absorbance of the solution was measured using a microplate reader spectrophotometer (Bio-Rad Laboratories, Inc., Hercules, Calif.) at a wavelength of 570 nm.

KYSE-520 = experiment: MTT cytotoxicity assay, KYSE-520; format: cell-based, Human; conditions: KYSE-520, highest concentration of 50 μg/mL, 48 hours
Procedure: as §1

KYSE-450 = experiment: MTT cytotoxicity assay, KYSE-450; format: cell-based, Human; conditions: KYSE-450, highest concentration of 50 μg/mL, 48 hours
Procedure: as §1

KYSE-150 cells [1] = experiment: Tumor xenograft mouse model; format: in vivo, Balb/c nude mice; conditions: 15 and 30 mg/kg/day intraperitoneal, 12 days, vs saline control
Procedure: Six to eight-week-old female Balb/c nude weighing between 16-20 g were bred in 12 h day/night cycle environment with free access to food and water. 2×10^6 KYSE-150 cells per […] saline were injected subcutaneously into the flanks of the mice. When the tumor volume reached about 100 mm^3, the mice were randomly divided into three groups (n=5) as followed: (i) a control group: administered with saline; (ii) a low dosage group: administered with compound 1 at 15 mg/kg/day by intraperitoneal injection; (iii) a high dosage group, administered with compound 1 at 30 mg/kg/day by intraperitoneal injection. Tumor volumes were calculated with calipers every two days according to the formula: Volume=(width)^2×length/2. After 12 days observation, mice were killed to remove the tumor. Then the samples were fixed in 4% paraformaldehyde and embedded in paraffin. Five-micro-meter sections were stained with hematoxylin/eosin according to a standard procedure. The protocol was approved by the committee for Care of Laboratory Animals in the School of Chinese Medicine at the Hong Kong Baptist University.

KYSE-150 cells [2] = experiment: Wound healing assay; format: cell-based, human; conditions: KYSE-150, 50 μg/mL, after 72 hours, vs control
Procedure: Cells were seeded in 12 wells plate at 30% confluence by scoring with a sterile plastic tip (1 mL), then washed several times with medium to remove cell debris and then incubated in the conditioned medium in the absence or presence of compound 1 at 50 μg/mL for various periods of time up to 72 hours. Cell migration into the wound surface was monitored by Olympus IX71 microscopy and digitally photographed.
To further examine the inhibitory effect of compound 1 on the migratory activity of cancer cell, a confluent monolayer of KYSE-150 cells was scratched to form a wound and incubated in the absence or presence of compound 1 (50 μg/mL) as compared to that of controls.

KYSE-150 = experiment: MTT cytotoxicity assay, KYSE-150; format: cell-based, Human; conditions: KYSE-150, highest concentration of 50 μg/mL, 48 hours
Procedure: as §1

COc1cc(-c2oc3cc(O)cc(O)c3c(=O)c2OC2OC(COC3OC(C)C(O)C(O)C3O)C(O)C(O)C2O)ccc1O (stereo not drawn) [compound 1]
Cytotoxicity (cell viability) (KYSE-70): no cytotoxicity was observed
Cytotoxicity (cell viability) (KYSE-520): no cytotoxicity was observed
Cytotoxicity (cell viability) (KYSE-450): no cytotoxicity was observed
Body weight (KYSE-150 cells [1]): significantly reduced
H&E staining of tumor tissue (KYSE-150 cells [1]): massive necrotizing tissue
Tumor growth (tumor volume) (KYSE-150 cells [1]): significantly reduced
Tumor weight (KYSE-150 cells [1]): significantly reduced tumor weight
Cell migration (KYSE-150 cells [2]): significantly inhibited the cell migration
Cytotoxicity (cell viability) (KYSE-150): cells viability was not altered; also recorded: no cytotoxicity was observed
